Laboratory results published in patent US11918555B2, “Dicarboxylic acid esters for the treatment of diseases and conditions associated with phospholipase D toxin” (priority 2020, dated 2024).

Key:
[1] = test system: brown recluse spider bite; assay: Topical diethyl azelate treatment of brown recluse spider bite; type: in vivo, human
Procedure: An adult subject was bitten once on their left forearm, and twice on their neck about one year later. Diethyl azelate was applied topically to the envenomation site at approximately 4 to 8 hour intervals for 14 days. Images of the affected neck area were normalized to the same size and converted to JPEG files. Inflamed red areas surrounding the bites visible as elevated lesions were outlined on the images and quantified using ImageJ software version 1.53e (ImageJ.nih.gov).

human RBC = assay: Hemolysis assay on human RBC (substance alone); type: cell-based
Procedure: (§1) Hemolytic activity was assessed on human RBC. The assay using human erythrocytes followed an established procedure as described in Evans, et al., “Ex vivo red blood cell hemolysis assay for the evaluation of pH-responsive endosomolytic agents for cytosolic delivery of biomacromolecular drugs,” J Vis Exp, 2013, e50166. Briefly, whole peripheral blood was drawn directly into K2-EDTA coated Vacutainer tubes and centrifuged at 500×g (relative centrifugal force). Pelleted erythrocytes were washed twice each with 150 mM NaCl and with phosphate buffered saline (PBS) and then reconstituted in 50-fold excess PBS. Immediately prior to the assay LOX was reconstituted in 20% glycerol in PBS. rPLD toxin was supplied as frozen stock in 10 mM Tris-HCl, 1 mM EDTA, 20% glycerol, was thawed on ice. The lysis assay was performed in 96-wells in a total volume of 200 ul. LOX and PLD toxin were and added as 20× concentrated stocks to the erythrocyte suspension. Triton X-100 (5% in serial dilutions to 0.04%) was used as a positive control. Incubation was performed for 60 min and the absorbance at 400 nm was measured using Tecan GENios microwell plate reader. Measurements were performed in triplicate repeats.

[2] = test system: Loxosceles reclusa venom (LOX); assay: Inhibition of hemolysis induced by L. reclusa venom (LOX); type: cell-based
Procedure: (§2) Lyophilized Loxosceles reclusa venom (LOX) was purchased from SpiderPharm, Yarnell, AZ Immediately prior to the assay LOX was reconstituted in 20% glycerol in PBS. Recombinant Loxosceles intermedia Phospholipase D LiSicTox-alphaIA1a full length protein expressed in E.coli (part #MBS1258368), further referred to as rPLD toxin, was purchased from MyBiosource Inc, San Diego, CA Diethyl azelate (>99% purity) was prepared as described in Streeper, el al.,“Oral Azelaic Acid Ester Decreases Markers Of Insulin Resistance In Overweight Male Human Subjects.” In Vivo (2020), 34(3), 1173-1186.
as §1

[3] = test system: Recombinant Loxosceles intermedia Phospholipase D LiSicTox-alphaIA1a (rPLD toxin); assay: Inhibition of hemolysis induced by recombinant PLD toxin; type: cell-based
Procedure: as §2, §1

Compound | swelling and discomfort ([1]; first incident, forearm bite, topical treatment initiated 4 hours after envenomation, by the fourth day) | arm circumference relative to pre-bite ([1]; first incident, forearm bite, topical treatment initiated 4 hours after envenomation, second day) | time of maximum inflamed red area around the bites ([1]; second incident, two neck bites, topical treatment initiated immediately, Day 2) [hours post-bite] | redness, pain and swelling ([1]; second incident, two neck bites, topical treatment initiated immediately, by Day 14) | effect on hemolysis (human RBC; human erythrocytes incubated with 122 μM DEA alone) | inhibition of hemolysis by L. reclusa venom, dose dependence ([2]; FIG. 3 legend) | inhibition of enzymatic activity of PLD toxin as measured by hemolysis induced by L. reclusa spider venom ([2]; FIG. 4 legend) | inhibition of hemolysis ([2]; preincubation of DEA with LOX for 60 min followed by addition of erythrocytes (FIG. 4)) | inhibition of hemolysis ([2]; preincubation of DEA with erythrocytes for 60 min followed by addition of LOX (FIG. 4)) | inhibition of hemolysis in the presence of LOX ([2]; starting at the lowest concentration of 1 μM DEA, constant LOX concentration (FIG. 3)) | hemolysis in the presence of PLD toxin ([3]; 1 μM DEA, reduced from 78%) [%] | hemolysis in the presence of PLD toxin ([3]; 5 μM DEA) [%] | hemolysis in the presence of PLD toxin ([3]; 24 μM DEA) [%] | hemolysis in the presence of PLD toxin ([3]; 122 μM DEA) [%] | inhibition of hemolysis by recombinant L. intermedia rPLD toxin, dose dependence ([3]; FIG. 3 legend) | inhibition of enzymatic activity of PLD toxin as measured by hemolysis induced by recombinant L. intermedia rPLD toxin ([3]; FIG. 4 legend) | erythrocytes hydrolyzed (hemolysis) (human RBC; human erythrocytes incubated with 5% Triton X100, positive control) [%]
CCOC(=O)CCCCCCCC(=O)OCC [DEA, Diethyl azelate] | largely subsided | approximately twice | 26 | entirely resolved | no effect on hemolysis | inhibits hemolysis | directly inhibits enzymatic activity | inhibition of hemolysis | inhibition of hemolysis | significantly inhibits hemolysis | 43 | 16 | 13 | 5 | inhibits hemolysis | directly inhibits enzymatic activity | –
Triton X100 [reference compound] | – | – | – | – | – | – | – | – | – | – | – | – | – | – | – | – | > 95
